Source: patent US20240294551A1 (AMGEN INC., priority 2022, published 2024)

Tests used:
[1] = target: GDP-bound KRAS protein (aa 1-169), containing both G12D and C118A amino acid substitutions (Homo sapiens (Human), UniProt P01116, C118A/G12D); experiment: KRAS G12D Coupled Nucleotide Exchange Assay; type: biochemical; conditions: read-out: KRAS G12D Coupled Exchange IC50
Experimental: KRAS G12D Coupled Nucleotide Exchange Assay
Following compound pre-incubation, purified SOS protein (aa 564-1049) and GTP (Roche 10106399001) were added to the assay wells and incubated for an additional 30 min. To determine the extent of inhibition of SOS-mediated nucleotide exchange, purified GST-tagged cRAF (aa 1-149), nickel chelate AlphaLISA acceptor beads (PerkinElmer AL108R), and AlphaScreen glutathione donor beads (PerkinElmer 6765302) were added to the assay wells and incubated for 10 minutes. The assay plates were then read on a PerkinElmer EnVision Multilabel Reader, using AlphaScreen® technology, and data were analyzed using a 4-parameter logistic model to calculate IC50 values.

[2] = target: His-tagged KRAS G12D protein (Homo sapiens (Human), UniProt P01116, G12D); experiment: KRAS G12D TR-FRET Assay; type: binding; conditions: read-out: KRAS G12D Binding IC50
Chain of His-tagged KRAS G12D protein (P01116 other isoform, or with tags, fused parts or gaps G12D): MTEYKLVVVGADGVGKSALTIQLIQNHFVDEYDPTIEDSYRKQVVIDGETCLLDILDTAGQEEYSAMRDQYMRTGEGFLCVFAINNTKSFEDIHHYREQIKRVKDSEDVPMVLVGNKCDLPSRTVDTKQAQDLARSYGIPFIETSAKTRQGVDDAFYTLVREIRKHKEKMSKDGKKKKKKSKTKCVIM
Experimental: Compounds of interest were prepared in a dose-response titration in DMSO, and 80 nL were added via Labcyte Echo to each well of a 384-well plate (Perkin Elmer 6008280). The His-tagged KRAS G12D protein (Amgen) was diluted to 20 nM in Assay Buffer (20 mM HEPES, pH 7.4, 10 mM MgCl2, 50 mM NaCl, 0.1% BSA, 0.01% Tween-20, 10 μM GDP) and 2 μL was added to the appropriate wells of the 384-well plate. The plate was incubated for 30 minutes at room temperature. Biotinylated KRPep-2d substrate (Amgen) was diluted to 20 nM in Assay Buffer and 2 μL was added to all wells and incubated for 1 hour at room temperature. Detection Reagent (0.4 nM LANCE Eu-W1024 Anti-6×His (Perkin Elmer AD0401), 5 nM streptavidin-d2 (Cisbio 610SADLA)) was prepared in Assay Buffer, then 4 μL was added to the plate and incubated for 1 hour at room temperature. Plates were read using PerkinElmer EnVision (ex: 320 nm, em1: 665 nm, em2: 615 nm) and em1/em2 data was used to generate curve fits using a 4-parameter logistic model to calculate IC50 values.

Chain of GDP-bound KRAS protein (aa 1-169), containing both G12D and C118A amino acid substitutions (P01116 other isoform, or with tags, fused parts or gaps G12D/C118A): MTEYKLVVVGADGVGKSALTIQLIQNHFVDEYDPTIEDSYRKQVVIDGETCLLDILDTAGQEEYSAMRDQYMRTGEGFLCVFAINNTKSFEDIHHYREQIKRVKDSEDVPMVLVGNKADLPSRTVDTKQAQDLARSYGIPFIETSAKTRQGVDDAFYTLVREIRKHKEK

Structure (SMILES) | IC50 [1] | IC50 [2]
O=C1CCCCc2c(Cl)cc3[nH]ncc3c2-c2ncc3c(nc(OC[C@@]45CCCN4C[C@H](F)C5)nc3c2F)N2C[C@H]3CN1[C@H]3C2 [Example 169, (18S,19R)-9-chloro-30-fluoro-24-(((2R,7aS)-2-fluorotetrahydro-1H-pyrrolo[1,2-a]pyrrol-7a(5H)-yl)methoxy)-5,6,16,21,23,25,29-heptaazaheptacyclo[24.3.1.1~18,21~.0~2,10~.0~3,7~.0~16,19~.0~22,27~]hentriaconta-1(30),2,4,7,9,22,24,26,28-nonaen-15-one] | 339 nM | 616 nM
Cc1cc2[nH]ncc2c2c1CCCCC(=O)N[C@@H]1CN(C[C@@H]3C[C@@H]31)c1nc(OC[C@@]34CCCN3C[C@H](F)C4)nc3c(F)c-2ncc13 [Example 170, (26S,27S,29R)-32-fluoro-4-(((2R,7aS)-2-fluorotetrahydro-1H-pyrrolo[1,2-a]pyrrol-7a(5H)-yl)methoxy)-18-methyl-1,3,5,9,14,15,25-heptaazaheptacyclo[24.4.1.1~6,10~.0~2,7~.0~11,19~.0~12,16~.0~27,29~]dotriaconta-2,4,6,8,10(32),11,13,16,18-nonaen-24-one] | 1540 nM | 2490 nM
O=C1N[C@@H]2CN(C[C@@H]3C[C@@H]32)c2nc(OC[C@@]34CCCN3C[C@H](F)C4)nc3c(F)c(ncc23)-c2c(c(Cl)cc3[nH]ncc23)CCC[C@H]1F [Example 172, (23R,26S,27S,29R)-18-chloro-23,32-difluoro-4-(((2R,7aS)-2-fluorotetrahydro-1H-pyrrolo[1,2-a]pyrrol-7a(5H)-yl)methoxy)-1,3,5,9,14,15,25-heptaazaheptacyclo[24.4.1.1~6,10~.0~2,7~.0~11,19~.0~12,16~.0~27,29~]dotriaconta-2,4,6,8,10(32),11,13,16,18-nonaen-24-one] | 1030 nM | 1770 nM
O=C1N[C@H]2CN(C[C@H]3C[C@H]32)c2nc(OC[C@@]34CCCN3C[C@H](F)C4)nc3c(F)c(ncc23)-c2c(c(Cl)cc3[nH]ncc23)CCC[C@H]1F [Example 173, (23R,26R,27R,29S)-18-chloro-23,32-difluoro-4-(((2R,7aS)-2-fluorotetrahydro-1H-pyrrolo[1,2-a]pyrrol-7a(5H)-yl)methoxy)-1,3,5,9,14,15,25-heptaazaheptacyclo[24.4.1.1~6,10~.0~2,7~.0~11,19~.0~12,16~.0~27,29~]dotriaconta-2,4,6,8,10(32),11,13,16,18-nonaen-24-one] | 1110 nM | 1570 nM
O=C1OCCCc2c(Cl)cc3[nH]ncc3c2-c2ncc3c(nc(OC[C@@]45CCCN4C[C@H](F)C5)nc3c2F)N2CC[C@@H]3CCN1[C@@H]3C2 [Example 176, (28R,32S)-18-chloro-33-fluoro-4-(((2R,7aS)-2-fluorotetrahydro-1H-pyrrolo[1,2-a]pyrrol-7a(5H)-yl)methoxy)-23-oxa-1,3,5,9,14,15,25-heptaazaheptacyclo[23.5.2.1~6,10~.0~2,7~.0~11,19~.0~12,16~.0~28,32~]tritriaconta-2,4,6,8,10(33),11,13,16,18-nonaen-24-one] | 179 nM | 287 nM
CN1C(=O)OCCCc2c(Cl)cc3[nH]ncc3c2-c2ncc3c(nc(OC[C@@]45CCCN4C[C@H](F)C5)nc3c2F)N2CCOC[C@@H]1C2 [Example 178, (26S)-18-chloro-32-fluoro-4-(((2R,7aS)-2-fluorotetrahydro-1H-pyrrolo[1,2-a]pyrrol-7a(5H)-yl)methoxy)-25-methyl-23,28-dioxa-1,3,5,9,14,15,25-heptaazahexacyclo[24.4.1.1~6,10~.0~2,7~.0~11,19~.0~12,16~]dotriaconta-2,4,6,8,10(32),11,13,16,18-nonaen-24-one] | 44 nM | 79 nM
CN1CCC[C@H]1COc1nc2c3cnc(c(F)c3n1)-c1c(c(Cl)cc3[nH]ncc13)CCCOC(=O)O[C@@]1(C)COCCN2C1 [Example 180, (26R)-18-chloro-32-fluoro-26-methyl-4-(((2S)-1-methyl-2-pyrrolidinyl)methoxy)-23,25,28-trioxa-1,3,5,9,14,15-hexaazahexacyclo[24.4.1.1~6,10~.0~2,7~.0~11,19~.0~12,16~]dotriaconta-2,4,6,8,10(32),11,13,16,18-nonaen-24-one] | 689 nM | 1510 nM
Cc1cc2[nH]ncc2c2c1CCCOC(=O)O[C@@]1(C)COCCN(C1)c1nc(OC[C@@H]3CCCN3C)nc3c(F)c-2ncc13 [Example 182, (26R)-32-fluoro-18,26-dimethyl-4-(((2S)-1-methyl-2-pyrrolidinyl)methoxy)-23,25,28-trioxa-1,3,5,9,14,15-hexaazahexacyclo[24.4.1.1~6,10~.0~2,7~.0~11,19~.0~12,16~]dotriaconta-2,4,6,8,10(32),11,13,16,18-nonaen-24-one] | 3620 nM | 7570 nM
O=C1OCCCc2c(Cl)cc3[nH]ncc3c2-c2c(F)cc3c(nc(OC[C@@]45CCCN4C[C@H](F)C5)nc3c2F)N2CCOC[C@H](C2)O1 [Example 188, m-(26S)-18-chloro-9,32-difluoro-4-(((2R,7aS)-2-fluorotetrahydro-1H-pyrrolo[1,2-a]pyrrol-7a(5H)-yl)methoxy)-23,25,28-trioxa-1,3,5,14,15-pentaazahexacyclo[24.4.1.1~6,10~.0~2,7~.0~11,19~.0~12,16~]dotriaconta-2,4,6,8,10(32),11,13,16,18-nonaen-24-one] | 44 nM | 71 nM
O=C1OCCCc2c(Cl)cc3[nH]ncc3c2-c2ncc3c(nc(O[C@H]4CCOC4)nc3c2F)N2CCOC[C@H](C2)O1 [Example 196, (26S)-18-chloro-32-fluoro-4-((3S)-tetrahydro-3-furanyloxy)-23,25,28-trioxa-1,3,5,9,14,15-hexaazahexacyclo[24.4.1.1~6,10~.0~2,7~.0~11,19~.0~12,16~]dotriaconta-2,4,6,8,10(32),11,13,16,18-nonaen-24-one] | 214 nM | 167 nM
O=C1OCCCc2c(Cl)cc3[nH]ncc3c2-c2ncc3c(nc(O[C@@H]4CCOC4)nc3c2F)N2CCOC[C@H](C2)O1 [Example 197, (26S)-18-chloro-32-fluoro-4-((3R)-tetrahydro-3-furanyloxy)-23,25,28-trioxa-1,3,5,9,14,15-hexaazahexacyclo[24.4.1.1~6,10~.0~2,7~.0~11,19~.0~12,16~]dotriaconta-2,4,6,8,10(32),11,13,16,18-nonaen-24-one] | 105 nM | 90 nM
Cc1nc2c3cnc(c(F)c3n1)-c1c(c(C)cc3[nH]ncc13)CCCOC(=O)O[C@@H]1COCCN2C1 [Example 210, (26S)-32-fluoro-4,18-dimethyl-23,25,28-trioxa-1,3,5,9,14,15-hexaazahexacyclo[24.4.1.1~6,10~.0~2,7~.0~11,19~.0~12,16~]dotriaconta-2,4,6,8,10(32),11,13,16,18-nonaen-24-one] | 431 nM | 435 nM
Cc1nc2c3cnc(c(F)c3n1)-c1c(c(C)cc3[nH]ncc13)[C@H]1C[C@H]1COC(=O)O[C@@H]1CCCN2C1 [Example 211, (11S,13R,18R)-31-fluoro-9,25-dimethyl-15,17-dioxa-5,6,22,24,26,30-hexaazaheptacyclo[25.3.1.1~18,22~.0~2,10~.0~3,7~.0~11,13~.0~23,28~]dotriaconta-1(31),2,4,7,9,23,25,27,29-nonaen-16-one] | 268 nM | 617 nM
N#Cc1cc(Cl)c2c(c1)-c1ncc3c(nc(OC[C@@]45CCCN4C[C@H](F)C5)nc3c1F)N1CCOC[C@H](C1)OC(=O)OCCC2 [Example 216] | 55 nM | 74 nM
Fc1ccc2cccc3c2c1CCOCC[C@@H]1CCCN(C1)c1nc(OC[C@@]24CCCN2C[C@H](F)C4)nc2c(F)c-3ncc12 [Example 223] | 343 nM | 642 nM
Fc1c2ncc3c(nc(OC[C@@]45CCCN4C[C@H](F)C5)nc13)N1CCO[C@@H](CCOCCCc3c(Cl)cc4[nH]ncc4c3-2)C1 [Example 224] | 39 nM | 63 nM
O[C@H]1c2ncc(o2)CCc2c(Cl)cc3[nH]ncc3c2-c2ncc3c(nc(OC[C@@]45CCCN4C[C@H](F)C5)nc3c2F)N2CCC[C@@H]1C2 [Example 234] | 9 nM | 77 nM
OC1CCCCc2c(Cl)cc3[nH]ncc3c2-c2ncc3c(nc(OC[C@@]45CCCN4C[C@H](F)C5)nc3c2F)N2CCOCC(C1)C2 (some centres unmarked) [Example 235] | 125 nM | 240 nM
Cc1cc2[nH]ncc2c2c1CCCCO[C@H](C)[C@H]1CN(CCO1)c1nc(OC[C@@]34CCCN3C[C@H](F)C4)nc3c(F)c-2ncc13 [Example 241, (16R,17R)-30-fluoro-24-(((2R,7aS)-2-fluorotetrahydro-1H-pyrrolo[1,2-a]pyrrol-7a(5H)-yl)methoxy)-9,16-dimethyl-15,18-dioxa-5,6,21,23,25,29-hexaazahexacyclo[24.3.1.1~17,21~.0~2,10~.0~3,7~.0~22,27~]hentriaconta-1(30),2,4,7,9,22,24,26,28-nonaene] | 1410 nM | 1290 nM
